As usually defined, the inhibition is the relative decrease from the control value, in per cent.

Assay in all cases: SelectScreen Z-LYTE kinase activity assay (SI Table 6)
Common to all, as to format: biochemical

The target of assay [1] is T1, protein kinases of the Z-LYTE panel (Homo sapiens, UniProt P43403).
T1 sequence (P43403 1-619): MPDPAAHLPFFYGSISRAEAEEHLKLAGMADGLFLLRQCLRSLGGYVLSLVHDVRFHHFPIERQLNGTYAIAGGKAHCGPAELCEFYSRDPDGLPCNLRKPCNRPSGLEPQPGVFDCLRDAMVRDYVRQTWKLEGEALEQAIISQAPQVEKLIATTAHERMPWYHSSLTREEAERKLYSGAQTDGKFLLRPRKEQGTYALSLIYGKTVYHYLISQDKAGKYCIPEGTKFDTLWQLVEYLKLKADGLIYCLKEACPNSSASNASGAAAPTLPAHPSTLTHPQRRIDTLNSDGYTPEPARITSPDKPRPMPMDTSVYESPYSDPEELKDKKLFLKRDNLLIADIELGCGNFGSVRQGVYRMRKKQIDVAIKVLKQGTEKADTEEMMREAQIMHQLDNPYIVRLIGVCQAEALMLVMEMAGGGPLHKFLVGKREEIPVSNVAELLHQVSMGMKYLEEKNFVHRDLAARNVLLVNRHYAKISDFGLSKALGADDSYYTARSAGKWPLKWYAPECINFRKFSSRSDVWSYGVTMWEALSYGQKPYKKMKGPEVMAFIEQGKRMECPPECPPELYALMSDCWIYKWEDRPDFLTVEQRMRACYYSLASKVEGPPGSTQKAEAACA
Put shortly:
(§1)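 Kinases in the SelectScreen panel (Adapta, LanthaScreen binding, Z-LYTE formats) were tested against compound at 1 μM. Separately, ATM (100 nM, 5 μM GST-p53, 1 mM ATP, 30 min, 30°C) and mTORC1 (50 nM, 15 μM 4E-BP1, 250 μM ATP, 3 h) were run with 200 μM compound. Those products were read on Phos-tag gels.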

The target of assay [2] is T2, protein kinases of the Z-LYTE panel (Homo sapiens, UniProt Q8IW41).
T2 sequence (Q8IW41 1-473): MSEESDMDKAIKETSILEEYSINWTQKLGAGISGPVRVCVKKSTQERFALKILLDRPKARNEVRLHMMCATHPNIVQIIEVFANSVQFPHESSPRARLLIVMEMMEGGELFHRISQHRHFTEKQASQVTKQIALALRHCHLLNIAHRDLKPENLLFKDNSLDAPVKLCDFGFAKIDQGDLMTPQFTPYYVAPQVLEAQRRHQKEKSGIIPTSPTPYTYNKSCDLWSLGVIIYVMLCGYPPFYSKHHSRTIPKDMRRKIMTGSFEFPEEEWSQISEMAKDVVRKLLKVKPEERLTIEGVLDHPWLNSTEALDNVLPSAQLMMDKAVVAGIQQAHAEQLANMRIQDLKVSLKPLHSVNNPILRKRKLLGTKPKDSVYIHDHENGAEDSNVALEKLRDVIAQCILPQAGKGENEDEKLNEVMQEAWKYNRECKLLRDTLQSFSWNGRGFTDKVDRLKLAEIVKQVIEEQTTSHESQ
The method, boiled down: as §1

For assay [3], the target named is protein kinases of the Z-LYTE panel (Homo sapiens, UniProt Q15303). Put shortly: as §1
Sequence of protein kinases of the Z-LYTE panel (Homo sapiens, UniProt Q15303) (Q15303 26-1308): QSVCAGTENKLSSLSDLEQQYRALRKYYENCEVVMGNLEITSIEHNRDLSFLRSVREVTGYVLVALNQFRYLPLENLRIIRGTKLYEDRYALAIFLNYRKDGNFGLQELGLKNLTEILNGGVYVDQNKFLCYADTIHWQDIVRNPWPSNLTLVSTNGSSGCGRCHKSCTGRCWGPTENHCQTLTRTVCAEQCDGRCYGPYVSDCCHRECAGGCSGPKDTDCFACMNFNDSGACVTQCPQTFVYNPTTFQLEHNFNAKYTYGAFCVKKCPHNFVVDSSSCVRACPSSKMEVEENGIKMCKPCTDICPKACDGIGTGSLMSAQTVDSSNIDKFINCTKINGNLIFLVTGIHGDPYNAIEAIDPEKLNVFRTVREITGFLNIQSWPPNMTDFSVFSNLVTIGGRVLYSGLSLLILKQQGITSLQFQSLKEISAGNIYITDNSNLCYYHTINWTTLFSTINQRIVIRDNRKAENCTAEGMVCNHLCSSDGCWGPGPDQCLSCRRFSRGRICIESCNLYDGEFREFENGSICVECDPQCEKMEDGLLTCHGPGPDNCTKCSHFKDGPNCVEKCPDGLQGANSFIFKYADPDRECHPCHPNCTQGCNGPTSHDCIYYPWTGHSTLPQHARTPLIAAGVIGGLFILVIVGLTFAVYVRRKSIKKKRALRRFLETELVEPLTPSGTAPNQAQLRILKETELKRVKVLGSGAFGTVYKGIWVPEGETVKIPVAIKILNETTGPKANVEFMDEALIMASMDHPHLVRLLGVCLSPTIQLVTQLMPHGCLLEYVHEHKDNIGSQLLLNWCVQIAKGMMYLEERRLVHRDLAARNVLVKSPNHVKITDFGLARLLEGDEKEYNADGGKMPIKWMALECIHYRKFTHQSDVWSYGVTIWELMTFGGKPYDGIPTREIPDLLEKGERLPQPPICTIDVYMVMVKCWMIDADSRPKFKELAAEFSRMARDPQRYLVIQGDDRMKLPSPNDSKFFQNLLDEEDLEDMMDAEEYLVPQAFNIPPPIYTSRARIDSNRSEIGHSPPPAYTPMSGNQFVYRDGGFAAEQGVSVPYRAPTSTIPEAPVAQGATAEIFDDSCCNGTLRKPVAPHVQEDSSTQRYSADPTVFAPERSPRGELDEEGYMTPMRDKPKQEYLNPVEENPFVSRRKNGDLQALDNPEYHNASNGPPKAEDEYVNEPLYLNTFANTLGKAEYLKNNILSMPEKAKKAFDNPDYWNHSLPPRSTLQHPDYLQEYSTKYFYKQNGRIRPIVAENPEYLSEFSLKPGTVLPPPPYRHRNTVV
Assay [4] has as its target protein kinases of the Z-LYTE panel (Homo sapiens, UniProt P04629). Put shortly: as §1
For assay [5], the target named is protein kinases of the Z-LYTE panel (Homo sapiens, UniProt P17252). The method, boiled down: as §1

Where two headings read alike, the source gives them in different places.

Sequence of protein kinases of the Z-LYTE panel (Homo sapiens, UniProt P04629) (P04629 33-796): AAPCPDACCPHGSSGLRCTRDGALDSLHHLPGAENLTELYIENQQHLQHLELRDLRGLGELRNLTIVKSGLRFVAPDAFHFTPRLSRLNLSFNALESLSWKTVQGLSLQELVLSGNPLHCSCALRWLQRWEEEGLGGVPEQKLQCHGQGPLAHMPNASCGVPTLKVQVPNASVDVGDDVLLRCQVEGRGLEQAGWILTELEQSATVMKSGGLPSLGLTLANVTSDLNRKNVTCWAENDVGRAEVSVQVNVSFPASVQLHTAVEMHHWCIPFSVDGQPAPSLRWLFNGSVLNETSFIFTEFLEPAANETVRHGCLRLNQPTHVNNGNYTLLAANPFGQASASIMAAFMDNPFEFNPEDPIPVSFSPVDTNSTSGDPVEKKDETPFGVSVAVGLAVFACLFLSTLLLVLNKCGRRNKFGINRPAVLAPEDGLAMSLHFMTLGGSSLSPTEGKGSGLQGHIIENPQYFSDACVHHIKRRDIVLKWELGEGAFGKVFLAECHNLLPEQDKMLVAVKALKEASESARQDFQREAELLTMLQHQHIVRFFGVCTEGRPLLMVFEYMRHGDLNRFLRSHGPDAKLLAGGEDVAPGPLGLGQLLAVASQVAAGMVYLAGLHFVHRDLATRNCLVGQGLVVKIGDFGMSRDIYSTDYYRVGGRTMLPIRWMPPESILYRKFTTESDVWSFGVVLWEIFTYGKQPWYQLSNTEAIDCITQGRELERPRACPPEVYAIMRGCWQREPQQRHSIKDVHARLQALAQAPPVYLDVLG

For `CCN1CCN(c2ccc(Nc3cc(Nc4cccc5c4N(C(C)=O)CC5)ccn3)cc2)CC1` [Compound 1938], the inhibition at 1 µM in assay [1] (read-out: % Inhibition Point 1) was 3%; in assay [1] (read-out: % Inhibition Point 2) it was -4.63%; in assay [1] (read-out: % Inhibition mean) it was -0.814%; in assay [2] (read-out: % Inhibition Point 1) it was 2.18%; in assay [2] (read-out: % Inhibition Point 2), 2.77%; in assay [2] (read-out: % Inhibition mean), 2.48%. Moreover, the inhibition at 1 µM amounted to 9% in assay [3] (read-out: % Inhibition Point 1); 9.48% in assay [3] (read-out: % Inhibition Point 2); 9% in assay [3] (read-out: % Inhibition mean); 26% in assay [4] (read-out: % Inhibition Point 1); 20% in assay [4] (read-out: % Inhibition Point 2); 23% in assay [4] (read-out: % Inhibition mean). Moreover, the results for the inhibition at 1 µM in assay [5] (read-out: % Inhibition Point 1), in assay [5] (read-out: % Inhibition Point 2) and in assay [5] (read-out: % Inhibition mean) were 13%, 12% and 13%, respectively.

(Values after paper PMC7614683, “A small molecule PI3Kα activator for cardioprotection and neuroregeneration” (Nature, 2023).)
